Measured values published in patent publication US20090176817A1, “Method of Treatment of Diarrhea-Predominant Irritable Bowel Syndrome in a Subject” (priority 2005, published 2009).

System: diarrhea-predominant IBS subjects
Experiment: Study S241.3.009: weekly diary questions on adequate relief
Assay type: in vivo, human
Conditions: for Overall responder rate, IBS symptoms / Overall responder rate, abdominal pain/discomfort / Overall responder rate, abnormal bowel habits: 26 weeks
Procedure: Study S241.3.009 was a Phase III, a double-blind, placebo-controlled, randomized, multinational study to investigate the safety and efficacy of 2 mg TID of cilansetron over 26 weeks in diarrhea-predominant IBS subjects. The study was conducted in 146 multinational study centers. A total of 1307 subjects consented to participate, and 806 subjects were randomized. A total of 792 subjects were analyzed for efficacy and 799 subjects were analyzed for safety. Diagnosis and main criteria for inclusion were IBS subjects satisfying the Rome I criteria (1992); the diarrhea-predominant sub-population of the Rome II criteria; and a minimum abdominal pain/discomfort, stool frequency and consistency determined during the run-in period. Subjects were treated with cilansetron 2 mg tablets given orally TID or matching placebo tablets given orally TID for 26 weeks.
The primary efficacy parameter was the overall response rate for IBS symptoms, based on the weekly question concerning adequate relief of IBS symptoms (abdominal pain/discomfort, abnormal bowel habits) over the 26 weeks period. A responder was a subject who responded “yes” at least 50% of the time during his/her treatment period, with minimum treatment duration of four weeks. The two main secondary efficacy parameters were overall responder rate based on the weekly question on adequate relief of abdominal pain/discomfort and abnormal bowel habits during the 26-week treatment period. The onset of action of cilansetron was also examined using daily diary data (stool frequency, and ratings of urgency and severity) during the initial 8 weeks of trial participation. An additional key secondary efficacy parameter was the number of months (one month equals four weeks) up to six months (24-weeks) that a subject was a responder for IBS symptoms, where a responder was defined as a subject who answered the weekly question with “yes” at least twice for that month. The responder rate for the weekly diary questions on adequate relief at each month and all months, the adequate relief rate, the number of subjects with adequate relief by week, daily diary questions, IBS-QOL scores, and the interruption of activities were also assessed. Safety was evaluated by physical examination, ECG, vital signs, laboratory evaluations, concomitant medications, and AEs.
Studies S24 1.3.OO6, S24 1.3.0 1 1, and S24 1.3.009 used the following efficacy measurements: • The subjects answered the following three questions with “yes” or “no” using a phone diary at the end of each week: • a) During the last week, did you experience adequate relief of your IBS symptoms, such as abdominal pain, abdominal discomfort, abnormal bowel habits? • b) During the last week, did you experience adequate relief of your abdominal pain and/or discomfort? • c) During the last week, did you experience adequate relief of your abnormal bowel habits? • The subjects rated the following symptoms using the phone diary at the end of each day: • abdominal pain/discomfort (five-point scale); • stool consistency (seven-point Bristol Stool Scale); • stool frequency (number of bowel movements each day); • urgency (five-point scale); • straining (yes or no); • feeling of incomplete defecation (yes or no); • bloating or feeling of abdominal distension (five-point scale). • In Studies S241 A006 and S241.3.009, subjects completed the IBS-QOL Survey at Baseline (Day 1) and at the end of treatment. In Study S24 1.3.0 1 1, subjects completed the IBS-QOL Survey at Baseline (Day 1), at the end of the three-month treatment period, and at the end of rerandomized treatment.
In all three pivotal efficacy studies, the primary and main secondary efficacy parameters were based on the weekly diary questions on adequate relief and included the following: • 1. Number of months (one month equals four weeks) that a subject was a responder for the weekly diary questions on adequate relief. […]

[1] = 2 mg TID, 26-week treatment period, observed case, ITT N = 395
[2] = 2 mg TID, Months 1 to 3, monthly LOCF, ITT N = 395
[3] = 2 mg TID, Months 1 to 3, observed case, ITT N = 395
[4] = 2 mg TID, Months 1 to 6, monthly LOCF, ITT N = 395
[5] = Baseline BMI: <30 kg/m^2, 26-week treatment period, observed case, ITT, 2 mg TID
[6] = Baseline BMI: <30 kg/m^2, Months 1 to 3, monthly LOCF, ITT, 2 mg TID

In the case of `Cc1nccn1C[C@H]1CCc2c(c3cccc4c3n2CCC4)C1=O` [Cilansetron, (R)-(−)-4,5,6,8,9,10-hexahydro-10-[(2-methyl-1H-imidazol-1-yl)methyl]-11H-pyrido-[3,2,1-jk]-carbazol-11-one], the “Overall responder rate, adequate relief of IBS symptoms” value [1] was 234 (59) n (%), the “Overall responder rate, adequate relief of abdominal pain/discomfort” value [1] was 239 (61) n (%) and the “Overall responder rate, adequate relief of abnormal bowel habits” value [1] was 253 (64) n (%). For the same compound, the “Subjects who were responders for One month, Abdominal pain/discomfort” value [2] was 61 (15) n (%), the “Subjects who were responders for One month, Abnormal bowel habits” value [2] was 49 (12) n (%) and the “Subjects who were responders for One month, IBS symptoms” value [2] was 55 (14) n (%). For the same compound, the “Subjects who were responders for Three months, Abdominal pain/discomfort” value [2] was 159 (40) n (%), the “Subjects who were responders for Three months, Abnormal bowel habits” value [2] was 165 (42) n (%) and the “Subjects who were responders for Three months, IBS symptoms” value [2] was 150 (38) n (%). For the same compound, the “Subjects who were responders for Two months, Abdominal pain/discomfort” value [2] was 70 (18) n (%), the “Subjects who were responders for Two months, Abnormal bowel habits” value [2] was 83 (21) n (%) and the “Subjects who were responders for Two months, IBS symptoms” value [2] was 80 (20) n (%). For the same compound, the “Subjects who were responders for Zero months, Abdominal pain/discomfort” value [2] was 105 (27) n (%), the “Subjects who were responders for Zero months, Abnormal bowel habits” value [2] was 98 (25) n (%) and the “Subjects who were responders for Zero months, IBS symptoms” value [2] was 110 (28) n (%). The “Overall responder rate, adequate relief of IBS symptoms” value [3] was 219 (55) n (%), the “Overall responder rate, adequate relief of abdominal pain/discomfort” value [3] was 221 (56) n (%) and the “Overall responder rate, adequate relief of abnormal bowel habits” value [3] was 243 (62) n (%). For the same compound, the “Subjects who were responders for Five months, Abdominal pain/discomfort” value [4] was 53 (13) n (%), the “Subjects who were responders for Five months, Abnormal bowel habits” value [4] was 61 (15) n (%) and the “Subjects who were responders for Five months, IBS symptoms” value [4] was 58 (15) n (%). For the same compound, the “Subjects who were responders for Four months, Abdominal pain/discomfort” value [4] was 41 (10) n (%), the “Subjects who were responders for Four months, Abnormal bowel habits” value [4] was 41 (10) n (%) and the “Subjects who were responders for Four months, IBS symptoms” value [4] was 52 (13) n (%). The “Subjects who were responders for One month, Abdominal pain/discomfort” value [4] was 26 (7) n (%), the “Subjects who were responders for One month, Abnormal bowel habits” value [4] was 17 (4) n (%) and the “Subjects who were responders for One month, IBS symptoms” value [4] was 25 (6) n (%). The “Subjects who were responders for Six months, Abdominal pain/discomfort” value [4] was 133 (34) n (%), the “Subjects who were responders for Six months, Abnormal bowel habits” value [4] was 136 (34) n (%) and the “Subjects who were responders for Six months, IBS symptoms” value [4] was 121 (31) n (%). For the same compound, the “Subjects who were responders for Three months, Abdominal pain/discomfort” value [4] was 31 (8) n (%), the “Subjects who were responders for Three months, Abnormal bowel habits” value [4] was 33 (8) n (%) and the “Subjects who were responders for Three months, IBS symptoms” value [4] was 25 (6) n (%). For the same compound, the “Subjects who were responders for Two months, Abdominal pain/discomfort” value [4] was 26 (7) n (%), the “Subjects who were responders for Two months, Abnormal bowel habits” value [4] was 22 (6) n (%) and the “Subjects who were responders for Two months, IBS symptoms” value [4] was 24 (6) n (%). The “Subjects who were responders for Zero months, Abdominal pain/discomfort” value [4] was 85 (22) n (%), the “Subjects who were responders for Zero months, Abnormal bowel habits” value [4] was 85 (22) n (%) and the “Subjects who were responders for Zero months, IBS symptoms” value [4] was 90 (23) n (%). The “Overall responder rate, IBS symptoms” value (females) was 63%, the “Overall responder rate, abdominal pain/discomfort” value (females) was 64% and the “Overall responder rate, abnormal bowel habits” value (females) was 67%. For the same compound, the “Overall responder rate, IBS symptoms” value (males) was 55%, the “Overall responder rate, abdominal pain/discomfort” value (males) was 57% and the “Overall responder rate, abnormal bowel habits” value (males) was 60%. The “Overall responder rate, abdominal pain/discomfort” value (observed case) was 61%, the “Overall responder rate, abnormal bowel habits” value (observed case) was 64% and the “Overall responder rate, IBS symptoms” value (observed case, ITT) was 59%. The “Overall responder rate, IBS symptoms” value (weekly LOCF) was 60%, the “Overall responder rate, abdominal pain/discomfort” value (weekly LOCF) was 61% and the “Overall responder rate, abnormal bowel habits” value (weekly LOCF) was 63%. For the same compound, the “Overall responder rate difference vs placebo across diary questions” value (BMI≧30 kg/m^2) was −10% to −1, the “Overall responder rate, adequate relief of IBS symptoms” value [5] was 207 (63) n (%) and the “Overall responder rate, adequate relief of abdominal pain/discomfort” value [5] was 207 (63) n (%). The “Overall responder rate, adequate relief of abnormal bowel habits” value [5] was 220 (67) n (%), the “Number of months a subject was a responder: One month (Abdominal pain/discomfort)” value [6] was 51 (15) n (%) and the “Number of months a subject was a responder: One month (Abnormal bowel habits)” value [6] was 39 (12) n (%). For the same compound, the “Number of months a subject was a responder: One month (IBS symptoms)” value [6] was 49 (15) n (%), the “Number of months a subject was a responder: Three months (Abdominal pain/discomfort)” value [6] was 139 (42) n (%) and the “Number of months a subject was a responder: Three months (Abnormal bowel habits)” value [6] was 144 (44) n (%).
